What was measured:
[1] = molecular target: Polymerase acidic protein (Influenza A virus (strain A/X-31 H3N2)) (UniProt Q9IQ47); assay: (§1) Inhibition of recombinant Influenza A virus (A/X-31(H3N2)) N-terminal 6xHis-tagged PA-Nter (1 to 217 residues) expressed in Escherichia coli BL21-CodonPlus cells using M13mp18 as substrate after 1 hr by ethidium bromide staining-based agarose gel electrophoresis
[2] = molecular target: Polymerase acidic protein (Influenza A virus (strain A/X-31 H3N2), UniProt Q9IQ47); assay: as §1
[3] = tested on: unidentified influenza virus; assay: Antiviral activity against Influenza virus assessed as inhibition of viral transcription
[4] = tested on: Influenza A virus; assay: Antiviral activity against Influenza A virus (A/Puerto Rico/8/1934(H1N1)) infected in MDCK cells after 24 hrs by immunofocus assay; assay type: functional, organism-based

Compound | IC50 [2] | other results
NS(=O)(=O)c1ccc(C(=O)NCCc2ccc(O)c(O)c2)cc1 | 12 µM | inhibition [1]: Dose-dependent effect
O=C(O)/C(O)=C/C(=O)C1(Cc2ccc(Cl)cc2)CCN(Cc2ccccc2)CC1 |  | IC50 [3]: 0.43 µM
O=C(C(=O)N1CCC(Cc2ccccc2)CC1)c1c[nH]c2cc(O)c(O)cc12 | 266 µM | 
O=C(CCN1CCC(Cc2ccc(F)cc2)CC1)c1c[nH]c2cc(O)c(O)cc12 | 243 µM | 
O=C(O)C(=O)CC(=O)c1ccccc1 | 3.2 µM | 
O=c1[nH]c(-c2ccc(F)cc2)c(-c2ccc(-c3nnn[nH]3)cc2)cc1O |  | EC50 [4]: 11.4 µM

From ChEMBL document CHEMBL4229507, “Identification of influenza PA-Nter endonuclease inhibitors using pharmacophore- and docking-based virtual screening” (Bioorg Med Chem, 2018)
